Test results from patent US6906205B2, “Spiro and dispiro 1,2,4-trioxolane antimalarials” (Medicines for Malaria Venture MMV, priority 2002, dated 2005).
Converted amounts (≈) assume the structure as drawn.

How the values were obtained:
P. berghei ANKA strain = assay: treatment: 3x3 mg/kg and 3x1 mg/kg po divided doses in infected mice; type: in vivo, Plasmodium berghei; conditions: for Activity (%) p.o. SSV: percent reduction of parasitemia day 4
Protocol: Moro NMRI male mice (Fü Albino specific pathogen free) weighing 18±2 g were infected intravenously (i.v.) with 2×10^7 P. berghei ANKA strain-infected erythrocytes from donor mice on day 0 of the experiment. From donor mice with circa 30% parasitemia, heparinized blood was taken and diluted in physiological saline to 10^8 parasitized erythrocytes per ml. An aliquot (0.2 ml) of this suspension was injected i.v. into experimental and control groups of mice. In untreated control mice, parasitemia rose regularly to 40 to 50% by day 3 post-infection and 70 to 80% by day 4 post-infection. The mice died between days 5 and 7 post-infection. Throughout the experiments, mice were kept in groups of three or five animals in Makrolon type II cages in an air-conditioned animal room at 22 to 23° C. A diet with p-aminobenzoic acid (PABA) of 45 mg (NAFAG FUTTER© food N^o 9009 PAB-45) per kg of body weight, and tap water is available ad libitum.
OZ compounds were prepared at an appropriate concentration, either as a solution or a suspension containing SSV (0.5% w/v CMC, 0.5% v/v benzyl alcohol, 0.4% v/v Tween 80, and 0.9% w/v sodium chloride in water). They were administered per os (p.o.) in a total volume of 0.01 ml per gram of mouse. The activity of the compound was determined by a variety of methods outlined in subsequent sections. Survival time was also recorded, and survival to day 30 post-infection was considered to be a cure.
The second experiment consists of administration of divided 3×3 mg/kg and 3×1 mg/kg po doses administered on days 1, 2, and 3 post-infection. On day 4 post-infection, blood smears of all animals were prepared and stained with Giemsa. Parasitemia was determined microscopically, and the difference between the mean value of the control group (taken as 100%) and those of the experimental groups was calculated and expressed as percent reduction. Compounds were administered orally in the SSV vehicle.

[1] = test system: ANKA strain of P. berghei; assay: single dose STI in vivo screen in infected mice; parameters: species or system Plasmodium berghei; conditions: for Activity (%) po / Survival (days) po: single 10 mg/kg po in 3% ethanol and 7% Tween 80; for Activity (%) po / Activity (%) sc / Activity (%) SSVpo: mice; for Activity (%) sc / Survival (days) sc: single 10 mg/kg sc in 3% ethanol and 7% Tween 80; for Activity (%) SSVpo: single po dose in standard suspending vehicle (SSV); for Survival (days) po / Survival (days) sc / Survival (days) SSVpo: untreated control 5.6 ± 0.3; for Survival (days) SSVpo: single po dose in SSV
Method in brief: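 Groups of 3-5 Moro SPF or NMRI mice infected with the ANKA strain of P. berghei received a single dose of trioxolane on day one post-infection. The compound was given in 3% ethanol and 7% Tween 80 or in SSV (0.5% w/v CMC, 0.5% v/v benzyl alcohol, 0.4% v/v Tween 80, 0.9% w/v sodium chloride in water). Antimalarial activity was scored as percent reduction in parasitemia on day three and as survival time versus untreated controls. Survival to day 30 counted as cure.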

[2] = test system: ANKA strain of Plasmodium berghei; assay: single dose ED50/ED90/ED99 determinations in infected mice; type: in vivo; conditions: single dose po in SSV, mice, percent reduction in parasitemia on day three post-infection
Protocol: In the single dose ED50/ED90/ED99 determinations, Moro SPF or NMRI mice (group of three) infected with the ANKA strain of Plasmodium berghei were treated on day one post-infection. […] The SSV consists of 0.5% w/v CMC, 0.5% v/v benzyl alcohol, 0.4% v/v Tween 80, and 0.9% w/v sodium chloride in water. Antimalarial activity was measured by percent reduction in parasitemia on day three post-infection. The ED50/ED90 values were calculated by nonlinear fitting.

[3] = test system: Schistosoma mansoni adult schistosomes (49-day-old); assay: effect on adult schistosomes (49-day-old) in mice; type: in vivo; conditions: single 400 mg/kg per os
Protocol: Mice were infected with 100 Schistosoma mansoni cercariae […]. Each group was treated per os with OZ compounds at single doses of 200, 400, and 600 mg/kg. […] All groups were killed 4 weeks after treatment and the liver and intestine were removed and separated. The liver and intestine were compressed and alive male and female worms could be seen and counted.

[4] = test system: P. falciparum K1 strain (Thailand resistant to chloroquine); assay: semiautomated microdilution assay, [3H]-hypoxanthine incorporation, K1 strain; type: cell-based, Plasmodium falciparum; conditions: K1 strain, 72 h incubation
Method in brief: (§1)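 Asynchronous stock cultures → intraerythrocytic forms; semiautomated microdilution; IC50 by logit regression.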

[5] = test system: P. falciparum NF54 strain (sensitive to standard antimalarials); assay: semiautomated microdilution assay, [3H]-hypoxanthine incorporation, NF54 strain; type: cell-based, Plasmodium falciparum; conditions: NF54 strain, 72 h incubation
Method in brief: as §1

[6] = test system: Schistosoma mansoni 21-day-old schistosomules; assay: effect on 21-day-old schistosomules in mice; type: in vivo; conditions: single 200 mg/kg per os, female mice
Protocol: All groups were killed 4 weeks after treatment and the liver and intestine were removed and separated. The liver and intestine were compressed and alive male and female worms could be seen and counted. The effect of the compounds was evaluated by mean total and female worm burden.

[7] = 3 × 1 mg/kg days 1, 2, 3 post-infection
[8] = 3 × 3 mg/kg days 1, 2, 3 post-infection
[9] = percent reduction in parasitemia day 3 post-infection

SMILES: NC(=O)c1cn(CC2CCC3(CC2)OOC2(O3)C3CC4CC(C3)CC2C4)cn1 (stereo not drawn) [compound 320]
- Survival (days) p.o. SSV (P. berghei ANKA strain; [7]): 8.6 days
- Activity (%) p.o. SSV (P. berghei ANKA strain; [7]): 50%
- Survival (days) p.o. SSV (P. berghei ANKA strain; [8]): 9.6 days
- Activity (%) p.o. SSV (P. berghei ANKA strain; [8]): 96%

SMILES: NC[C@H]1CC[C@]2(CC1)OOC1(O2)C2CC3CC(C2)CC1C3 (stereo partly drawn) [OZ181]
- Activity (%) po ([1]; percent reduction in parasitemia day 3 post-infection, 10 mg/kg): 99.98%
- Activity (%) sc [1, 9]: 100%
- Activity (%) SSVpo [1, 9]: 99.91%
- Survival (days) po ([1]; 10 mg/kg): 9.0 days
- Survival (days) sc ([1]; 10 mg/kg): 11.0 days
- Survival (days) SSVpo [1]: 10.0 days
- ED50 [2]: 0.63 mg/kg
- ED90 [2]: 1.8 mg/kg
- ED99 [2]: 4.0 mg/kg

SMILES: C[C@H]1[C@@H](OCc2ccc(C(=O)O)cc2)O[C@@H]2O[C@@]3(C)CC[C@H]4[C@H](C)CC[C@@H]1[C@@]24OO3 [Artelinate]
- ED50 [2]: 4.8 mg/kg
- ED90 [2]: 10 mg/kg
- ED99 [2]: 18 mg/kg

SMILES: NC1(C(=O)NCC2CCC3(CC2)OOC2(O3)C3CC4CC(C3)CC2C4)CCCC1 (stereo not drawn) [compound 317]
- Survival (days) p.o. SSV (P. berghei ANKA strain; [7]): 11.4 days
- Activity (%) p.o. SSV (P. berghei ANKA strain; [7]): 73%
- Survival (days) p.o. SSV (P. berghei ANKA strain; [8]): 16.8 days
- Activity (%) p.o. SSV (P. berghei ANKA strain; [8]): 100%

SMILES: O=C(CC1CCC2(CC1)OOC1(O2)C2CC3CC(C2)CC1C3)N1CCC(O)CC1 (stereo not drawn) [compound 297]
- Survival (days) p.o. SSV (P. berghei ANKA strain; [7]): 6.4 days
- Activity (%) p.o. SSV (P. berghei ANKA strain; [7]): 22%
- Survival (days) p.o. SSV (P. berghei ANKA strain; [8]): 9.4 days
- Activity (%) p.o. SSV (P. berghei ANKA strain; [8]): 89%

SMILES: C1C2CC3CC1CC(C2)C31OOC2(O1)C1CC3CC(C1)CC2C3 (stereo not drawn) [OZ04]
- % reduction of adult worms growth at day 49 after per os application of 400 mg/kg, TWR (%) [3]: 0/0%
- adult worms at day 49, per os 400 mg/kg, DEAD WORM (%) [3]: 0/0%
- Activity (%) po [1, 9]: 0/NA/0^1%
- Activity (%) sc [1, 9]: 0/NA/0^1%
- Survival (days) po [1]: 5.3/NA/5.3^1 days
- Survival (days) sc [1]: 5.3/NA/5.3^1 days
- IC50 (ng/ml) K1 [4]: >100/>100 ng/ml
- IC50 (ng/ml) NF54 [5]: >100/>100 ng/ml
- % reduction of schistosomule growth at day 21 after per os application of 200 mg/kg, FWR (%) [6]: 7%
- % reduction of schistosomule growth at day 21 after per os application of 200 mg/kg, TWR (%) [6]: 7%

SMILES: CCOC(=O)N1CCC2(CC1)OOC1(O2)C2CC3CC(C2)CC1C3 (stereo not drawn) [OZ23]
- % reduction of adult worms growth at day 49 after per os application of 400 mg/kg, TWR (%) [3]: 0%
- adult worms at day 49, per os 400 mg/kg, DEAD WORM (%) [3]: 4%
- Activity (%) po [1, 9]: 99.5%
- Activity (%) sc [1, 9]: 99.9%
- Activity (%) SSVpo [1, 9]: 99.34%
- Survival (days) po [1]: 7.7 days
- Survival (days) sc [1]: 8.9 days
- Survival (days) SSVpo [1]: 7.0 days
- IC50 (ng/ml) K1 [4]: 0.29 ng/mL (≈ 0.859 nM)
- IC50 (ng/ml) NF54 [5]: 0.57 ng/mL (≈ 1.69 nM)
- % reduction of schistosomule growth at day 21 after per os application of 200 mg/kg, FWR (%) [6]: 84%
- % reduction of schistosomule growth at day 21 after per os application of 200 mg/kg, TWR (%) [6]: 90%

SMILES: NC1CCN(C(=O)C[C@H]2CC[C@]3(CC2)OO[C@]2(O3)C3CC4CC(C3)CC2C4)CC1 [OZ339]
- Activity (%) 3 mg/kg SSV po ([1]; percent reduction in parasitemia day 3 post-infection, single 3 mg/kg po in SSV): 99.65%
- Activity (%) 10 mg/kg SSV po ([1]; percent reduction in parasitemia day 3 post-infection, single 10 mg/kg po in SSV): 99.95%
- infected mice cured (P. berghei ANKA strain; 3×3 mg/kg po on days 1, 2, 3 post-infection, SSV): ⅗

SMILES: Oc1ccc(C2CCC3(CC2)OOC2(O3)C3CC4CC(C3)CC2C4)cc1 (stereo not drawn) [compound 288]
- Survival (days) p.o. SSV (P. berghei ANKA strain; [7]): 8.4 days
- Activity (%) p.o. SSV (P. berghei ANKA strain; [7]): 49%
- Survival (days) p.o. SSV (P. berghei ANKA strain; [8]): 10.2 days
- Activity (%) p.o. SSV (P. berghei ANKA strain; [8]): 99%

SMILES: CCOC(=O)CNCC1CCC2(CC1)OOC1(O2)C2CC3CC(C2)CC1C3.CS(=O)(=O)O (stereo not drawn) [compound 290]
- Survival (days) p.o. SSV (P. berghei ANKA strain; [7]): 6.8 days
- Activity (%) p.o. SSV (P. berghei ANKA strain; [7]): 14%
- Survival (days) p.o. SSV (P. berghei ANKA strain; [8]): 10.6 days
- Activity (%) p.o. SSV (P. berghei ANKA strain; [8]): 93%
